Measured values: patent US20260055113A1, “HETEROARYL COMPOUNDS FOR THE TREATMENT OF CANCER” (Hoffmann-La Roche Inc., priority 2022, published 2026)

experiment: Human microsomal stability assay; assay type: in vitro ADME; conditions: human liver microsomes 0.5 mg/mL, 1 μM test compound, 37° C., pH 7.4
Method: Human liver microsomes (Cat. NO.: 452117, Corning, USA) were preincubated with test compound for 10 minutes at 37° C. in 100 mM potassium phosphate buffer, pH 7.4. The reactions were initiated by adding NADPH regenerating system. The final incubation mixtures contained 1 μM test compound, 0.5 mg/mL liver microsomal protein, 1 mM MgCl2, 1 mM NADP, 1 unit/mL isocitric dehydrogenase and 6 mM isocitric acid in 100 mM potassium phosphate buffer, pH 7.4. After incubation times of 0, 3, 6, 9, 15 and 30 minutes at 37° C., 300 μL of cold ACN (including internal standard) was added to 100 μL incubation mixture to terminate the reaction. Following precipitation and centrifugation, 100 μL supernatant will be taken out and added 300 μL water. The amount of compound remaining in the samples was determined by LC-MS/MS. Controls of no NADPH regenerating system at zero and 30 minutes were also prepared and analyzed. The results were categorized as: low (<7.0 mL/min/kg), medium (7.0-16.2 mL/min/kg) and high (16.2-23.2 mL/min/kg).

CC(c1ccccc1)c1nn(C)c2nnc(-c3c[nH]c(=O)[nH]c3=O)cc12 (stereo not drawn) [Example 5, 5-[1-methyl-3-(1-phenylethyl)pyrazolo[3,4-c]pyridazin-5-yl]-1H-pyrimidine-2,4-dione] and CC(Oc1nn(C)c2nnc(-c3c[nH]c(=O)[nH]c3=O)cc12)c1ccccc1 (stereo not drawn) [Example 10, 5-[1-methyl-3-(1-phenylethoxy)pyrazolo[3,4-c]pyridazin-5-yl]-1H-pyrimidine-2,4-dione] are the same in “CL (h)” value: 6.15 mL/min/kg for the first, 6.15 mL/min/kg for the second.

Cn1nc(O[C@H](c2ccccc2)C(F)F)c2cc(-c3c[nH]c(=O)[nH]c3=O)nnc21 [Example 28, 5-[3-[(1R)-2,2-difluoro-1-phenyl-ethoxy]-1-methyl-pyrazolo[3,4-c]pyridazin-5-yl]-1H-pyrimidine-2,4-dione] and Cn1nc(O[C@@H](c2ccccc2)C(F)(F)F)c2cc(-c3c[nH]c(=O)[nH]c3=O)nnc21 [Example 30B, 5-[1-methyl-3-[(1S)-2,2,2-trifluoro-1-phenyl-ethoxy]pyrazolo[3,4-c]pyridazin-5-yl]-1H-pyrimidine-2,4-dione] are within 1.5-fold of each other in “CL (h)” value: 6.15 mL/min/kg for the first, 8.44 mL/min/kg for the second.

Cn1nc(O[C@@H](c2ccccn2)C(F)(F)F)c2cc(-c3c[nH]c(=O)[nH]c3=O)nnc21 [Example 29B, 5-[1-methyl-3-[(1S)-2,2,2-trifluoro-1-(2-pyridyl)ethoxy]pyrazolo[3,4-c]pyridazin-5-yl]-1H-pyrimidine-2,4-dione] and Cn1nc(O[C@H](c2ccccn2)C(F)F)c2cc(-c3c[nH]c(=O)[nH]c3=O)nnc21 [Example 31A, 5-[3-[(1R)-2,2-difluoro-1-(2-pyridyl)ethoxy]-1-methyl-pyrazolo[3,4-c]pyridazin-5-yl]-1H-pyrimidine-2,4-dione] are the same in “CL (h)” value: 6.15 mL/min/kg for the first, 6.15 mL/min/kg for the second.

Cn1nc(O[C@@H](c2ccccn2)C(F)F)c2cc(-c3c[nH]c(=O)[nH]c3=O)nnc21 [Example 31B, 5-[3-[(1S)-2,2-difluoro-1-(2-pyridyl)ethoxy]-1-methyl-pyrazolo[3,4-c]pyridazin-5-yl]-1H-pyrimidine-2,4-dione] and Cn1nc(O[C@H](c2ccc(F)cn2)C(F)F)c2cc(-c3c[nH]c(=O)[nH]c3=O)nnc21 [Example 32A, 5-[3-[(1R)-2,2-difluoro-1-(5-fluoro-2-pyridyl)ethoxy]-1-methyl-pyrazolo[3,4-c]pyridazin-5-yl]-1H-pyrimidine-2,4-dione] are the same in “CL (h)” value: 6.15 mL/min/kg for the first, 6.15 mL/min/kg for the second.

Cn1nc(O[C@@H](c2ccc(F)cn2)C(F)F)c2cc(-c3c[nH]c(=O)[nH]c3=O)nnc21 [Example 32B, 5-[3-[(1S)-2,2-difluoro-1-(5-fluoro-2-pyridyl)ethoxy]-1-methyl-pyrazolo[3,4-c]pyridazin-5-yl]-1H-pyrimidine-2,4-dione] and Cc1cccc([C@@H](Oc2nn(C)c3nnc(-c4c[nH]c(=O)[nH]c4=O)cc23)C(F)F)n1 [Example 33A, 5-[3-[(1R)-2,2-difluoro-1-(6-methyl-2-pyridyl)ethoxy]-1-methyl-pyrazolo[3,4-c]pyridazin-5-yl]-1H-pyrimidine-2,4-dione] are the same in “CL (h)” value: 6.15 mL/min/kg for the first, 6.15 mL/min/kg for the second.

Cc1cccc([C@H](Oc2nn(C)c3nnc(-c4c[nH]c(=O)[nH]c4=O)cc23)C(F)F)n1 [Example 33B, 5-[3-[(1S)-2,2-difluoro-1-(6-methyl-2-pyridyl)ethoxy]-1-methyl-pyrazolo[3,4-c]pyridazin-5-yl]-1H-pyrimidine-2,4-dione] and Cc1nc([C@H](C)Oc2nn(C)c3nnc(-c4c[nH]c(=O)[nH]c4=O)cc23)ccc1F [Example 40, 5-[3-[(1S)-1-(5-fluoro-6-methyl-2-pyridyl)ethoxy]-1-methyl-pyrazolo[3,4-c]pyridazin-5-yl]-1H-pyrimidine-2,4-dione] are the same in “CL (h)” value: 6.15 mL/min/kg for the first, 6.15 mL/min/kg for the second.
